Laboratory results taken from US20150164762A1, “USE OF ETHANOLAMINE PHOSPHATE” (priority 2012, published 2015).

How the values were obtained:
NHLF cells = assay: WST-8 proliferation test, primary normal human lung fibroblasts (NHLF); type: cell-based; details: 0% FBS DMEM, 124 hours
Description: 10% FBS-DMEM was used as the medium.

BEAS-2B cells = assay: WST-8 proliferation test, BEAS-2B cells at different FBS concentrations; type: cell-based, human
Experimental: 10% FBS RPMI-1640 was used as the medium. […] Following medium replacement, 10 μl/well of EP solution was added. A proliferation test (WST-8 assay) was performed after 96 hours. The operations of the WST-8 assay were as follows.
(1) The medium was removed from the 96-well plate by decantation and tapping.
(2) WST-8 reagent (Dojindo) was mixed to a ratio of 1:10 with serum-free medium (RPMI-1640) that had been warmed in advance at 37° C., and added to the wells from which the medium had been removed.
(3) A color reaction was performed for 1 hour in a CO2 incubator, and absorbance at 450 nm and 650 nm was measured with an absorbance plate reader.
(4) Absorbance at 450 nm-absorbance at 650 nm was calculated for purposes of correction between plates.
(5) The average of the 4 blank wells was subtracted from the corrected value of all wells, and the result was given as the relative corresponding cell number.

HEKa cells [1] = assay: WST-8 proliferation test, primary normal keratinocytes (HEKa); type: cell-based, human; details: Epilife basal medium, 21 days
Experimental: HEKa cells (Takara Bio) were seeded to 2×10^4 cells/cm^2 on a 48-well plate. Epilife basal medium (M-EPI-500-CA, Invitrogen) with HKGS Kit (S-001-K, Invitrogen) as an added factor was used as the medium. This HKGS Kit contains bovine pituitary extract, bovine insulin, hydrocortisone, bovine transferrin and human EGF.

BEAS-2B = assay: Cell toxicity of H2O2 after EP pre-treatment (WST-8 assay); type: cell-based, human
Experimental: Cells of the normal airway epithelial cell line BEAS-2B were seeded at a density of 1×10^5/cm^2 on a 96-well plate, and after 24 hours the medium was replaced with 0.5% FBS RPMI 1640 containing EP at final concentrations of 0, 250 and 500 μM. 24 hours after medium replacement the medium was replaced with 0.5% FBS RPMI-1640, and serially diluted H2O2 was administered (n=4). 24 hours after H2O2 administration a cell toxicity test WST-8 assay (Cell Counting Kit-8, Dojindo) was performed. For the data analysis, the 50% cell death concentration EC50 was calculated with GraphPad Prism 5 statistical analysis software.

IL-8 = assay: ELISA of IL-8 secreted from THP-1 cells, with or without LPS; type: cell-based, human
Experimental: Human monocytic cultured THP-1 cells were cultured logarithmically as follows in 10% FBS RPMI-1640 growth culture. Cells were seeded to 4×10^5/ml on a 24-well plate (500 μl/well), additional growth culture containing EP was added, and finally the EP concentration was adjusted to the target concentration (0.1 mM, 1 mM). 2 hours after EP administration, further growth medium containing lipopolysaccharides (LPS) was added, and adjusted to concentrations of 0.1 μg/ml and 1 μg/ml.
4 hours and 24 hours after lipopolysaccharide administration, the medium was collected, the cells were precipitated by centrifugation, and the supernatant was used as an ELISA sample. As in the Singh et al. report, the inflammatory cytokine TNF-α and the chemokine IL-8, which attracts inflammatory cells, were used as ELISA measurement indicators.

HEKa cells [2] = assay: Transepithelial electrical resistance (TER), HEKa; type: cell-based, human; details: 1 mM EP
Experimental: HEKa cells were seeded to 6×10^4 cells/cm^2 on a cell culture insert (353104, BD Falcon). Culture was performed in complete medium consisting of HKGS Kit (S-001-K, Invitrogen) added to Epilife basal medium (M-EPI-500-CA, Invitrogen), and once confluence was reached, a medium containing […] the specific compounds listed under Conditions 1 to 3 above was substituted for the complete medium, and medium replacement was performed once a day. TER was measured as in Example 11.

## NCCOP(=O)(O)O [EP, Ethanolamine phosphate]
NHLF cells
  growth-stimulating effect: growth-stimulating effect
BEAS-2B cells; 0-0.5% FBS, 96 hours
  proliferation of BEAS-2B cells: dependent on EP concentration
BEAS-2B cells; high-concentration range (mM level)
  toxicity attributable to EP: no obvious toxicity
BEAS-2B cells; medium contains no FBS, 96 hours
  cell proliferation, ratio relative to control using 0 μM EP: ≤ 11 times
HEKa cells [1]
  growth-stimulating effect: growth-stimulating effect
  minimum concentration giving roughly the maximum growth-stimulating effect: 15.6 µM
BEAS-2B; EP pre-treatment 250 uM
  Toxity reduction rate % (H2O2 cytotoxicity): 33%
BEAS-2B; EP pre-treatment 500 uM
  Toxity reduction rate % (H2O2 cytotoxicity): 28%
BEAS-2B; pre-treatment with 250 to 500 μM of EP
  reduction of the cytotoxicity of H2O2: about 30%
IL-8; 4 hours and 24 hours of stimulus, EP 0.1 mM, 1 mM
  secretion of LPS-induced IL-8: dose-dependently suppressed
IL-8; cells not treated with LPS, 26 hours, 1 mM EP
  IL-8 secretion, reduced to % of untreated: about 43%
HEKa cells [2]
  rise in TER value relative to the control: 2.3 fold
